# Source: patent US20050208496A1, “Methods of testing for bronchial asthma or chronic obstructive pulmonary disease” (Genox Research, Inc., priority 2002, published 2005)
# Read-outs that look alike come from different tables or passages of the source.
# Tested on: respiratory epithelial cells
substance,measurement,setting,value
"IL-13: human IL-13 (Peprotech, Inc.) added to the medium at 50 ng/mL to stimulate respiratory epithelial cells","pendrin gene expression level, factor of increase in response to IL-13 stimulation","AI method, day 3 and day 7, both Lots 1 and 2",ten or more
same,AKR1C1 (32805_at) expression change upon IL-13 stimulation,"HG-U95A, lot 1, Day 3, AI",−2.7
same,ALDH3B2 (37956_at) expression change upon IL-13 stimulation,"HG-U95A, lot 1, Day 3, AI",−7.4
same,AP1G1 (35275_at) expression change upon IL-13 stimulation,"HG-U95A, lot 1, Day 3, AI",−3.6
same,CA12 (36454_at) expression change upon IL-13 stimulation,"HG-U95A, lot 1, Day 3, AI",−4
same,CHL1 (34193_at) expression change upon IL-13 stimulation,"HG-U95A, lot 1, Day 3, AI",−2.5
same,CMAH (39317_at) expression change upon IL-13 stimulation,"HG-U95A, lot 1, Day 3, AI",−2.2
same,E48 (36284_at) expression change upon IL-13 stimulation,"HG-U95A, lot 1, Day 3, AI",−10.3
same,EPHX1 (38790_at) expression change upon IL-13 stimulation,"HG-U95A, lot 1, Day 3, AI",−3
same,FMO2.3 (34935_at) expression change upon IL-13 stimulation,"HG-U95A, lot 1, Day 3, AI",−2.2
same,GLUL (40522_at) expression change upon IL-13 stimulation,"HG-U95A, lot 1, Day 3, AI",−3.8
same,GSTA4 (40508_at) expression change upon IL-13 stimulation,"HG-U95A, lot 1, Day 3, AI",−8
same,"HGNC, keratinocyte transglutaminase gene (35947_at) expression change upon IL-13 stimulation","HG-U95A, lot 1, Day 3, AI",−2
same,KIAA0843 (39597_at) expression change upon IL-13 stimulation,"HG-U95A, lot 1, Day 3, AI",−2.2
same,LGALS1 (33412_at) expression change upon IL-13 stimulation,"HG-U95A, lot 1, Day 3, AI",−2
same,PYGL (37215_at) expression change upon IL-13 stimulation,"HG-U95A, lot 1, Day 3, AI",−2.2
same,SCYD1 (823_at) expression change upon IL-13 stimulation,"HG-U95A, lot 1, Day 3, AI",−2.2
same,SDC1 (38127_at) expression change upon IL-13 stimulation,"HG-U95A, lot 1, Day 3, AI",−2.2
same,TGFBI (1385_at) expression change upon IL-13 stimulation,"HG-U95A, lot 1, Day 3, AI",−3.8
same,ADH1A (34637_f_at) expression change upon IL-13 stimulation,"HG-U95A, lot 1, Day 3, IMM",−3
same,AP1G1 (35275_at) expression change upon IL-13 stimulation,"HG-U95A, lot 1, Day 3, IMM",−2.8
same,CA12 (36454_at) expression change upon IL-13 stimulation,"HG-U95A, lot 1, Day 3, IMM",−3.5
same,CLDN10 (39579_at) expression change upon IL-13 stimulation,"HG-U95A, lot 1, Day 3, IMM",−2.3
same,GLUL (40522_at) expression change upon IL-13 stimulation,"HG-U95A, lot 1, Day 3, IMM",−2.9
same,GPX3 (770_at) expression change upon IL-13 stimulation,"HG-U95A, lot 1, Day 3, IMM",−3.2
same,KIAA0843 (39597_at) expression change upon IL-13 stimulation,"HG-U95A, lot 1, Day 3, IMM",−2.3
same,TGFBI (1385_at) expression change upon IL-13 stimulation,"HG-U95A, lot 1, Day 3, IMM",−2.2
same,ADH1A (34637_f_at) expression change upon IL-13 stimulation,"HG-U95A, lot 1, Day 7, AI",−6.1
same,ADH1C (36247_f_at) expression change upon IL-13 stimulation,"HG-U95A, lot 1, Day 7, AI",−4.1
same,AKR1C1 (32805_at) expression change upon IL-13 stimulation,"HG-U95A, lot 1, Day 7, AI",−3.2
same,ALDH3B2 (37956_at) expression change upon IL-13 stimulation,"HG-U95A, lot 1, Day 7, AI",−6.8
same,AP1G1 (35275_at) expression change upon IL-13 stimulation,"HG-U95A, lot 1, Day 7, AI",−3.9
same,ATP10B (37415_at) expression change upon IL-13 stimulation,"HG-U95A, lot 1, Day 7, AI",−3.2
same,BLMH (37700_at) expression change upon IL-13 stimulation,"HG-U95A, lot 1, Day 7, AI",−2.1
same,CA12 (36454_at) expression change upon IL-13 stimulation,"HG-U95A, lot 1, Day 7, AI",−6.3
same,CLDN10 (39579_at) expression change upon IL-13 stimulation,"HG-U95A, lot 1, Day 7, AI",−4.6
same,CMAH (39317_at) expression change upon IL-13 stimulation,"HG-U95A, lot 1, Day 7, AI",−4.4
same,CP (39008_at) expression change upon IL-13 stimulation,"HG-U95A, lot 1, Day 7, AI",−3.6
same,CRYM (38285_at) expression change upon IL-13 stimulation,"HG-U95A, lot 1, Day 7, AI",−4.2
same,CSPG2 (38112_g_at) expression change upon IL-13 stimulation,"HG-U95A, lot 1, Day 7, AI",−2.1
same,DHCR24 (36658_at) expression change upon IL-13 stimulation,"HG-U95A, lot 1, Day 7, AI",−2.3
same,DSG3 (33693_at) expression change upon IL-13 stimulation,"HG-U95A, lot 1, Day 7, AI",−3.6
same,E48 (36284_at) expression change upon IL-13 stimulation,"HG-U95A, lot 1, Day 7, AI",−7.2
same,EPHX1 (38790_at) expression change upon IL-13 stimulation,"HG-U95A, lot 1, Day 7, AI",−3
same,FACL2 (40082_at) expression change upon IL-13 stimulation,"HG-U95A, lot 1, Day 7, AI",−2.7
same,FMO3 (40665_at) expression change upon IL-13 stimulation,"HG-U95A, lot 1, Day 7, AI",−2.1
same,GLUL (40522_at) expression change upon IL-13 stimulation,"HG-U95A, lot 1, Day 7, AI",−3
same,GPX3 (770_at) expression change upon IL-13 stimulation,"HG-U95A, lot 1, Day 7, AI",−6.5
same,GSTA4 (40508_at) expression change upon IL-13 stimulation,"HG-U95A, lot 1, Day 7, AI",−3.8
same,"HGNC, keratinocyte transglutaminase gene (35947_at) expression change upon IL-13 stimulation","HG-U95A, lot 1, Day 7, AI",−3.2
same,KIAA0843 (39597_at) expression change upon IL-13 stimulation,"HG-U95A, lot 1, Day 7, AI",−2.6
same,KIAA0878 (32215_1_at) expression change upon IL-13 stimulation,"HG-U95A, lot 1, Day 7, AI",−3.4
same,KIAA1055 (39400_at) expression change upon IL-13 stimulation,"HG-U95A, lot 1, Day 7, AI",−5.3
same,LCE (40943_at) expression change upon IL-13 stimulation,"HG-U95A, lot 1, Day 7, AI",−2
same,LGALS1 (33412_at) expression change upon IL-13 stimulation,"HG-U95A, lot 1, Day 7, AI",−6.8
same,PYGL (37215_at) expression change upon IL-13 stimulation,"HG-U95A, lot 1, Day 7, AI",−3.2
same,SCYD1 (823_at) expression change upon IL-13 stimulation,"HG-U95A, lot 1, Day 7, AI",−8.5
same,TGFBI (1385_at) expression change upon IL-13 stimulation,"HG-U95A, lot 1, Day 7, AI",−5.3
same,TNFAIP2 (38631_at) expression change upon IL-13 stimulation,"HG-U95A, lot 1, Day 7, AI",−4.4
same,AKR1C1 (32805_at) expression change upon IL-13 stimulation,"HG-U95A, lot 1, Day 7, IMM",−3.1
same,AP1G1 (35275_at) expression change upon IL-13 stimulation,"HG-U95A, lot 1, Day 7, IMM",−3.7
same,CA12 (36454_at) expression change upon IL-13 stimulation,"HG-U95A, lot 1, Day 7, IMM",−4
same,CHL1 (34193_at) expression change upon IL-13 stimulation,"HG-U95A, lot 1, Day 7, IMM",2.1
same,CP (39008_at) expression change upon IL-13 stimulation,"HG-U95A, lot 1, Day 7, IMM",−2.6
same,FMO2.3 (34935_at) expression change upon IL-13 stimulation,"HG-U95A, lot 1, Day 7, IMM",−2.4
same,GPX3 (770_at) expression change upon IL-13 stimulation,"HG-U95A, lot 1, Day 7, IMM",−6
same,"HGNC, keratinocyte transglutaminase gene (35947_at) expression change upon IL-13 stimulation","HG-U95A, lot 1, Day 7, IMM",−3.7
same,KIAA0878 (32215_1_at) expression change upon IL-13 stimulation,"HG-U95A, lot 1, Day 7, IMM",−2.3
same,PYGL (37215_at) expression change upon IL-13 stimulation,"HG-U95A, lot 1, Day 7, IMM",−2.7
same,TGFBI (1385_at) expression change upon IL-13 stimulation,"HG-U95A, lot 1, Day 7, IMM",−3
same,ADH1C (36247_f_at) expression change upon IL-13 stimulation,"HG-U95A, lot 2, Day 3, AI",−6.1
same,AKR1C1 (32805_at) expression change upon IL-13 stimulation,"HG-U95A, lot 2, Day 3, AI",−2.4
same,ALDH3B2 (37956_at) expression change upon IL-13 stimulation,"HG-U95A, lot 2, Day 3, AI",−6.9
same,AP1G1 (35275_at) expression change upon IL-13 stimulation,"HG-U95A, lot 2, Day 3, AI",−2.8
same,CA12 (36454_at) expression change upon IL-13 stimulation,"HG-U95A, lot 2, Day 3, AI",−6.5
same,CHL1 (34193_at) expression change upon IL-13 stimulation,"HG-U95A, lot 2, Day 3, AI",−4.3
same,CLDN10 (39579_at) expression change upon IL-13 stimulation,"HG-U95A, lot 2, Day 3, AI",−5.4
same,CMAH (39317_at) expression change upon IL-13 stimulation,"HG-U95A, lot 2, Day 3, AI",−7.4
same,CP (39008_at) expression change upon IL-13 stimulation,"HG-U95A, lot 2, Day 3, AI",−3.9
same,DHCR24 (36658_at) expression change upon IL-13 stimulation,"HG-U95A, lot 2, Day 3, AI",−2.1
same,E48 (36284_at) expression change upon IL-13 stimulation,"HG-U95A, lot 2, Day 3, AI",−3.8
same,EPHX1 (38790_at) expression change upon IL-13 stimulation,"HG-U95A, lot 2, Day 3, AI",−3
same,FMO2.3 (34935_at) expression change upon IL-13 stimulation,"HG-U95A, lot 2, Day 3, AI",−3.7
same,FMO3 (40665_at) expression change upon IL-13 stimulation,"HG-U95A, lot 2, Day 3, AI",−2.3
same,GLUL (40522_at) expression change upon IL-13 stimulation,"HG-U95A, lot 2, Day 3, AI",−3.5
same,GPX3 (770_at) expression change upon IL-13 stimulation,"HG-U95A, lot 2, Day 3, AI",−12.2
same,GSTA4 (40508_at) expression change upon IL-13 stimulation,"HG-U95A, lot 2, Day 3, AI",−2.8
same,"HGNC, keratinocyte transglutaminase gene (35947_at) expression change upon IL-13 stimulation","HG-U95A, lot 2, Day 3, AI",−2.7
same,KIAA0843 (39597_at) expression change upon IL-13 stimulation,"HG-U95A, lot 2, Day 3, AI",−2.1
same,KIAA0878 (32215_1_at) expression change upon IL-13 stimulation,"HG-U95A, lot 2, Day 3, AI",−2.4
same,LGALS1 (33412_at) expression change upon IL-13 stimulation,"HG-U95A, lot 2, Day 3, AI",−2.6
same,PYGL (37215_at) expression change upon IL-13 stimulation,"HG-U95A, lot 2, Day 3, AI",−2.2
same,SCYD1 (823_at) expression change upon IL-13 stimulation,"HG-U95A, lot 2, Day 3, AI",−2.1
same,TGFBI (1385_at) expression change upon IL-13 stimulation,"HG-U95A, lot 2, Day 3, AI",−3.1
same,TNFAIP2 (38631_at) expression change upon IL-13 stimulation,"HG-U95A, lot 2, Day 3, AI",−2.4
same,ADH1A (34637_f_at) expression change upon IL-13 stimulation,"HG-U95A, lot 2, Day 7, AI",−20.5
same,ADH1C (36247_f_at) expression change upon IL-13 stimulation,"HG-U95A, lot 2, Day 7, AI",−14.2
same,ALDH3B2 (37956_at) expression change upon IL-13 stimulation,"HG-U95A, lot 2, Day 7, AI",−27.6
same,AP1G1 (35275_at) expression change upon IL-13 stimulation,"HG-U95A, lot 2, Day 7, AI",−2.6
same,ATP10B (37415_at) expression change upon IL-13 stimulation,"HG-U95A, lot 2, Day 7, AI",−3
same,BLMH (37700_at) expression change upon IL-13 stimulation,"HG-U95A, lot 2, Day 7, AI",−2.5
same,CA12 (36454_at) expression change upon IL-13 stimulation,"HG-U95A, lot 2, Day 7, AI",−3
same,CHL1 (34193_at) expression change upon IL-13 stimulation,"HG-U95A, lot 2, Day 7, AI",−7.3
same,CLDN10 (39579_at) expression change upon IL-13 stimulation,"HG-U95A, lot 2, Day 7, AI",−5.4
same,CMAH (39317_at) expression change upon IL-13 stimulation,"HG-U95A, lot 2, Day 7, AI",−14.4
same,CP (39008_at) expression change upon IL-13 stimulation,"HG-U95A, lot 2, Day 7, AI",−6.2
